# Source: US20160130278A1 (TAISHO PHARMACEUTICAL CO., LTD, priority 2013, published 2016)
# Target: T1, human type 1 glycine transporter (GlyT1) (Homo sapiens, UniProt P48067)
# T1 construct: T98G cells (glioma cells) expressing human type 1 glycine transporter (GlyT1) were used
# T1 sequence (P48067 1-706): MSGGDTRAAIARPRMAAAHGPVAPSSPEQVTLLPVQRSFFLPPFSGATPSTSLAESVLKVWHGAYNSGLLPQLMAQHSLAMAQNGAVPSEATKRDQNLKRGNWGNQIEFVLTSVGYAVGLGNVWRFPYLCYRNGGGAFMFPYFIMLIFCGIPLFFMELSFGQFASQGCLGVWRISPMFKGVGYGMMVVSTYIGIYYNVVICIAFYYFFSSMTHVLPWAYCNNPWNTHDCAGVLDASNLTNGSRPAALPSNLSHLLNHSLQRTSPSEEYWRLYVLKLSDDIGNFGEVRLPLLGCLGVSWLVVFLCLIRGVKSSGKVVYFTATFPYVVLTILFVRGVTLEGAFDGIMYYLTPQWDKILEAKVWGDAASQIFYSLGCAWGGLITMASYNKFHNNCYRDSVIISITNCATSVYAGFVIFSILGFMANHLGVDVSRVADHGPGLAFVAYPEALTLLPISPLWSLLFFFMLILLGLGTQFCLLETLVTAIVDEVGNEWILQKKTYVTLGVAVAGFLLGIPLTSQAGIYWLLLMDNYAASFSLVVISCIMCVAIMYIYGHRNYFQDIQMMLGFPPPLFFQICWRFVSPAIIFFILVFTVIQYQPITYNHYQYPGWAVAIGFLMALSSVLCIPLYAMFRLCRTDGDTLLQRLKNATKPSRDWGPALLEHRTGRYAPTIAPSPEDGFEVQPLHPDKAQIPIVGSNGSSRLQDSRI
# Test: Glycine uptake inhibition experiment ([3H]glycine uptake)
# Format: cell-based
# Conditions: GlyT1
# Method in brief: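 T98G glioma cells expressing human GlyT1 were pretreated 10 min with compound in HEPES buffer pH 7.4 (0.2% BSA), then incubated with compound plus 250 nM final [3H]glycine for 15 min at room temperature. Intracellular radioactivity was counted after NaOH lysis; 10 μM ALX5407 defined non-specific uptake. IC50 came from 10^−9–10^−5 M curves.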
row,Compound,IC50 [nM]
1,"O=C(NC(c1cccc(F)c1Cl)[C@]1(O)CC[C@@H](F)CC1)c1cc(C(F)(F)F)cnc1Cl (single isomer, unassigned) [Compound 317, 2-chloro-N-[(2-chloro-3-fluorophenyl)(cis-4-fluoro-1-hydroxycyclohexyl)methyl]-5-(trifluoromethyl)pyridine-3-carboxamide]",150
2,"O=C(NC(c1ncccc1Cl)C1(O)CCC(F)(F)CC1)c1nccc(C(F)(F)F)c1Cl (single isomer, unassigned) [Compound 318, 3-chloro-N-[(3-chloropyridin-2-yl)(4,4-difluoro-1-hydroxycyclohexyl)methyl]-4-(trifluoromethyl)pyridine-2-carboxamide]",240
3,"O=C(NC(c1ncccc1Cl)C1(O)CCC(F)(F)CC1)c1nccc(C(F)(F)F)c1Cl (single isomer, unassigned) [Compound 319, 3-chloro-N-[(3-chloropyridin-2-yl)(4,4-difluoro-1-hydroxycyclohexyl)methyl]-4-(trifluoromethyl)pyridine-2-carboxamide]",1800
4,"O=C(NC(c1cccc(F)c1Cl)[C@]1(O)CC[C@@H](F)CC1)c1ncc(C(F)(F)F)cc1Cl (single isomer, unassigned) [Compound 320, 3-chloro-N-[(2-chloro-3-fluorophenyl)(cis-4-fluoro-1-hydroxycyclohexyl)methyl]-5-(trifluoromethyl)pyridine-2-carboxamide]",1000
5,"O=C(NC(c1cccnc1Cl)[C@]1(O)CC[C@@H](F)CC1)c1ccnc(C(F)(F)F)c1Cl (single isomer, unassigned) [Compound 321, 3-chloro-N-[(2-chloropyridin-3-yl)(cis-4-fluoro-1-hydroxycyclohexyl)methyl]-2-(trifluoromethyl)pyridine-4-carboxamide]",590
6,"O=C(NC(c1cccnc1Cl)[C@]1(O)CC[C@@H](F)CC1)c1cccc(C(F)(F)F)c1Cl (single isomer, unassigned) [Compound 322, 2-chloro-N-[(2-chloropyridin-3-yl)(cis-4-fluoro-1-hydroxycyclohexyl)methyl]-3-(trifluoromethyl)benzamide]",350
7,"O=C(NC(c1cccnc1Cl)[C@]1(O)CC[C@@H](F)CC1)c1cc(C(F)(F)F)ncc1Cl (single isomer, unassigned) [Compound 323, 5-chloro-N-[(2-chloropyridin-3-yl)(cis-4-fluoro-1-hydroxycyclohexyl)methyl]-2-(trifluoromethyl)pyridine-4-carboxamide]",200
8,"O=C(NC(c1cccnc1Cl)[C@]1(O)CC[C@@H](F)CC1)c1nccc(C(F)F)c1Cl (single isomer, unassigned) [Compound 324, 3-chloro-N-[(2-chloropyridin-3-yl)(cis-4-fluoro-1-hydroxycyclohexyl)methyl]-4-(difluoromethyl)pyridine-2-carboxamide]",1200
9,"O=C(NC(c1cccnc1Cl)[C@]1(O)CC[C@@H](F)CC1)c1cc(C(F)(F)F)ccc1Cl (single isomer, unassigned) [Compound 325, 2-chloro-N-[(2-chloropyridin-3-yl)(cis-4-fluoro-1-hydroxycyclohexyl)methyl]-5-(trifluoromethyl)benzamide]",430
10,"O=C(NC(c1cccnc1Cl)[C@]1(O)CC[C@@H](F)CC1)c1nccc2ccccc12 (single isomer, unassigned) [Compound 326, N-[(2-chloropyridin-3-yl)(cis-4-fluoro-1-hydroxycyclohexyl)methyl]isoquinoline-1-carboxamide]",1100
11,"O=C(NC(c1cccc(Cl)n1)[C@]1(O)CC[C@@H](F)CC1)c1cccc(C(F)(F)F)c1Cl (single isomer, unassigned) [Compound 327]",81
12,"O=C(NC(c1cccc(Cl)n1)[C@]1(O)CC[C@@H](F)CC1)c1nccc(C(F)F)c1Cl (single isomer, unassigned) [Compound 328, 3-chloro-N-[(6-chloropyridin-2-yl)(cis-4-fluoro-1-hydroxycyclohexyl)methyl]-4-(difluoromethyl)pyridine-2-carboxamide]",200
13,"O=C(NC(c1cccc(F)n1)[C@]1(O)CC[C@@H](F)CC1)c1nccc(C(F)(F)F)c1Cl (single isomer, unassigned) [Compound 329, 3-chloro-N-[(cis-4-fluoro-1-hydroxycyclohexyl)(6-fluoropyridin-2-yl)methyl]-4-(trifluoromethyl)pyridine-2-carboxamide]",140
14,"O=C(NC(c1cc(Cl)ccn1)[C@]1(O)CC[C@@H](F)CC1)c1ccnc(C(F)(F)F)c1Cl (single isomer, unassigned) [Compound 330, 3-chloro-N-[(4-chloropyridin-2-yl)(cis-4-fluoro-1-hydroxycyclohexyl)methyl]-2-(trifluoromethyl)pyridine-4-carboxamide]",56
15,"O=C(NC(c1cc(Cl)ccn1)[C@]1(O)CC[C@@H](F)CC1)c1cccc(C(F)(F)F)c1Cl (single isomer, unassigned) [Compound 331, 2-chloro-N-[(4-chloropyridin-2-yl)(cis-4-fluoro-1-hydroxycyclohexyl)methyl]-3-(trifluoromethyl)benzamide]",88
16,"O=C(NC(c1cc(Cl)ccn1)[C@]1(O)CC[C@@H](F)CC1)c1nccc(C(F)F)c1Cl (single isomer, unassigned) [Compound 332, 3-chloro-N-[(4-chloropyridin-2-yl)(cis-4-fluoro-1-hydroxycyclohexyl)methyl]-4-(difluoromethyl)pyridine-2-carboxamide]",1400
17,"O=C(NC(c1cc(Cl)ccn1)[C@]1(O)CC[C@@H](F)CC1)c1cc(C(F)(F)F)ncc1Cl (single isomer, unassigned) [Compound 333, 5-chloro-N-[(4-chloropyridin-2-yl)(cis-4-fluoro-1-hydroxycyclohexyl)methyl]-2-(trifluoromethyl)pyridine-4-carboxamide]",1700
18,"O=C(NC(c1cc(Cl)ccn1)[C@]1(O)CC[C@@H](F)CC1)c1nccc2ccccc12 (single isomer, unassigned) [Compound 334, N-[(4-chloropyridin-2-yl)(cis-4-fluoro-1-hydroxycyclohexyl)methyl]isoquinoline-1-carboxamide]",900
19,"O=C(NC(c1cc(Cl)ccn1)[C@]1(O)CC[C@@H](F)CC1)c1ccc(C(F)(F)F)nc1Cl (single isomer, unassigned) [Compound 335, 2-chloro-N-[(4-chloropyridin-2-yl)(cis-4-fluoro-1-hydroxycyclohexyl)methyl]-6-(trifluoromethyl)pyridine-3-carboxamide]",270
20,"O=C(NC(c1cccc(F)c1Cl)[C@]1(O)CC[C@@H](F)CC1)c1cc(-n2nccn2)ccc1Cl (single isomer, unassigned) [Compound 336, 2-chloro-N-[(2-chloro-3-fluorophenyl)(cis-4-fluoro-1-hydroxycyclohexyl)methyl]-5-(2H-1,2,3-triazol-2-yl)benzamide]",690
21,"O=C(NC(c1cccc(F)c1Cl)[C@]1(O)CC[C@@H](F)CC1)c1cc(-n2ccnn2)ccc1Cl (single isomer, unassigned) [Compound 337, 2-chloro-N-[(2-chloro-3-fluorophenyl)(cis-4-fluoro-1-hydroxycyclohexyl)methyl]-5-(1H-1,2,3-triazol-1-yl)benzamide]",1900
22,"O=C(NC(c1cccc(Cl)n1)[C@]1(O)CC[C@@H](F)CC1)c1ccnc(C(F)(F)F)c1Cl (single isomer, unassigned) [Compound 338, 3-chloro-N-[(6-chloropyridin-2-yl)(cis-4-fluoro-1-hydroxycyclohexyl)methyl]-2-(trifluoromethyl)pyridine-4-carboxamide]",96
23,"O=C(NC(c1cccc(Cl)n1)[C@]1(O)CC[C@@H](F)CC1)c1ccc(C(F)(F)F)nc1Cl (single isomer, unassigned) [Compound 339, 2-chloro-N-[(6-chloropyridin-2-yl)(cis-4-fluoro-1-hydroxycyclohexyl)methyl]-6-(trifluoromethyl)pyridine-3-carboxamide]",140
24,"O=C(NC(c1cccnc1Cl)C1(O)CCC(F)(F)CC1)c1nccc(C(F)(F)F)c1Cl (single isomer, unassigned) [Compound 340, 3-chloro-N-[(2-chloropyridin-3-yl)(4,4-difluoro-1-hydroxycyclohexyl)methyl]-4-(trifluoromethyl)pyridine-2-carboxamide]",320
25,"O=C(NC(c1cccnc1Cl)C1(O)CCC(F)(F)CC1)c1ccnc(C(F)(F)F)c1Cl (single isomer, unassigned) [Compound 341, 3-chloro-N-[(2-chloropyridin-3-yl)(4,4-difluoro-1-hydroxycyclohexyl)methyl]-2-(trifluoromethyl)pyridine-4-carboxamide]",850
